Measurements from ChEMBL document CHEMBL1122339, “Structure-activity studies of configurationally rigid arylprostaglandins” (1983).
Calls of active or inactive are those of the source. No cut-off for these calls is given here.

Key:
[1] = test system: Mus musculus; test: In vivo potency relative to PGE-2 =100 for diarrheal activity in conscious mice.; type: functional
[2] = organism: Cavia porcellus; test: In vitro potency relative to PGE-2 (=100 for uterine stimulant activity in guinea pig at 0.1-10 ug/mL concentration); type: functional
[3] = test system: Mus musculus; test: In vivo potency relative to PGE-2 =100 for diarrheal activity in conscious mice at 0.3-3.0 mg/kg, iv; No effect; type: functional, organism-based

| SMILES | Relative potency [1] | Relative potency [2] | Relative potency [3] |
| --- | --- | --- | --- |
| O=C(O)CCC/C=C\C[C@@H]1C(/C=C/[C@@H](O)[C@@H]2CCc3ccccc3C2)[C@H](O)C[C@@H]1O (stereo partly drawn) | 40 | 18 |  |
| O=C(O)CCC/C=C\C[C@H]1C(=O)C[C@@H](O)C1/C=C/[C@@H](O)[C@@H]1CCc2ccccc2O1 (stereo partly drawn) | 730 | 130 |  |
| O=C(O)CCC/C=C\C[C@@H]1C(/C=C/[C@@H](O)[C@H]2Cc3ccccc3O2)[C@H](O)C[C@@H]1O (stereo partly drawn) | 10 | 0.2 |  |
| O=C(O)CCC/C=C\C[C@H]1C(=O)C[C@@H](O)C1/C=C/[C@H](O)[C@@H]1CCc2ccccc2O1 (stereo partly drawn) |  | 7 |  |
| O=C(O)CCC/C=C\C[C@H]1C(=O)C[C@@H](O)C1/C=C/[C@@H](O)[C@H]1CCc2ccccc2O1 (stereo partly drawn) | 270 | 66 |  |
| O=C(O)CCC/C=C\C[C@@H]1C(/C=C/[C@H](O)[C@H]2CCc3ccccc3C2)[C@H](O)C[C@@H]1O (stereo partly drawn) |  | 0.1 |  |
| O=C(O)CCC/C=C\C[C@H]1C(=O)C[C@@H](O)C1/C=C/[C@@H](O)[C@@H]1CCc2ccccc2C1 (stereo partly drawn) | 40 | 36 |  |
| O=C(O)CCC/C=C\C[C@@H]1C(/C=C/[C@H](O)[C@@H]2CCc3ccccc3C2)[C@H](O)C[C@@H]1O (stereo partly drawn) |  | 0.1 |  |
| O=C(O)CCC/C=C\C[C@H]1C(=O)C[C@@H](O)C1/C=C/[C@H](O)C1Cc2ccccc2C1 (stereo partly drawn) |  | 0.3 | inactive |
| O=C(O)CCC/C=C\C[C@H]1C(=O)C[C@@H](O)C1/C=C/[C@@H](O)[C@H]1CCc2ccccc2C1 (stereo partly drawn) |  | 44 | inactive |
| O=C(O)CCC/C=C\C[C@H]1C(=O)C[C@@H](O)C1/C=C/[C@@H](O)[C@H]1Cc2ccccc2O1 (stereo partly drawn) |  | 0.1 | inactive |
| O=C(O)CCC/C=C\C[C@H]1C(=O)C[C@@H](O)C1/C=C/[C@@H](O)[C@@H]1Cc2ccccc2O1 (stereo partly drawn) | >250 | 18 |  |
| O=C(O)CCC/C=C\C[C@@H]1C(/C=C/[C@H](O)[C@@H]2CCc3ccccc3O2)[C@H](O)C[C@@H]1O (stereo partly drawn) |  | 0.4 |  |
| O=C(O)CCC/C=C\C[C@H]1C(=O)C[C@@H](O)C1/C=C/[C@H](O)[C@@H]1CCc2ccccc2C1 (stereo partly drawn) |  | 2 |  |
| O=C(O)CCC/C=C\C[C@@H]1C(/C=C/[C@H](O)C2Cc3ccccc3O2)[C@H](O)C[C@@H]1O (stereo partly drawn) | 15 | 0.3 |  |
| O=C(O)CCC/C=C\C[C@@H]1C(/C=C/[C@@H](O)[C@H]2CCc3ccccc3C2)[C@H](O)C[C@@H]1O (stereo partly drawn) | 10 | 2 |  |
| O=C(O)CCC/C=C\C[C@@H]1C(/C=C/[C@@H](O)[C@H]2CCc3ccccc3O2)[C@H](O)C[C@@H]1O (stereo partly drawn) | 310 | 19 |  |
| O=C(O)CCC/C=C\C[C@@H]1C(/C=C/[C@@H](O)COc2ccccc2)[C@H](O)C[C@@H]1O (stereo partly drawn) | 150 | 15 |  |
| O=C(O)CCC/C=C\C[C@@H]1C(/C=C/[C@@H](O)[C@@H]2CCc3ccccc3O2)[C@H](O)C[C@@H]1O (stereo partly drawn) | 1100 | 25 |  |
| O=C(O)CCC/C=C\C[C@@H]1C(/C=C/[C@@H](O)[C@@H]2Cc3ccccc3O2)[C@H](O)C[C@@H]1O (stereo partly drawn) | 190 | 5 |  |
| O=C(O)CCC/C=C\C[C@H]1C(=O)C[C@@H](O)C1/C=C/[C@@H](O)C1Cc2ccccc2C1 (stereo partly drawn) | 25 | 6 |  |
| O=C(O)CCC/C=C\C[C@H]1C(=O)C[C@@H](O)C1/C=C/[C@H](O)C1Cc2ccccc2O1 (stereo partly drawn) | 15 | 19 |  |
| O=C(O)CCC/C=C\C[C@@H]1C(/C=C/[C@@H](O)C2Cc3ccccc3C2)[C@H](O)C[C@@H]1O (stereo partly drawn) | 50 | 0.3 |  |
| O=C(O)CCC/C=C\C[C@@H]1C(/C=C/[C@H](O)COc2ccccc2)[C@H](O)C[C@@H]1O (stereo partly drawn) |  | 300 |  |
| O=C(O)CCC/C=C\C[C@@H]1C(/C=C/[C@H](O)[C@H]2CCc3ccccc3O2)[C@H](O)C[C@@H]1O (stereo partly drawn) |  | 0.8 |  |
| O=C(O)CCC/C=C\C[C@H]1C(=O)C[C@@H](O)C1/C=C/[C@H](O)[C@H]1CCc2ccccc2C1 (stereo partly drawn) |  | 0.1 | inactive |
| O=C(O)CCC/C=C\C[C@@H]1C(/C=C/[C@H](O)C2Cc3ccccc3C2)[C@H](O)C[C@@H]1O (stereo partly drawn) |  | 0.07 | inactive |
| O=C(O)CCC/C=C\C[C@H]1C(=O)C[C@@H](O)C1/C=C/[C@H](O)[C@H]1CCc2ccccc2O1 (stereo partly drawn) |  | 3 |  |
